Entries after “also recorded” stand apart in the source; their conditions may differ. Where no end group is shown, it is not given here.
Tests used:
[1] = test system: CD4+ and CD8+ T-cells and IgG autoantibodies; assay: Overlap of CD4+, CD8+ and IgG antibody responses (Venn analysis); type: cell-based, human; conditions: type 1 diabetes; for patients with overlapping (concordant) CD4+ and CD8+ responses to the peptide: Study cohort 2, SI >1
Text: FIG. 13. Venn diagrams of CD4^+, CD8^+ and antibody response to oxPTM-INSPs. Panels a, b, and c show the overlap between IgG autoantibody and T-cell (CD4^+ and CD8^+) responses specific to oxPTM-INSP-3 (a), Nt-INSP-4 (b) and oxPTM-INSP-6 (c). Panels d, e, and f display the overlap between T-cell responses to the three insulin peptides and IgG to oxPTM-INS modified by hydroxyl radical (^●OH-INS). […] There is concordance between reactivity to oxPTM-INS and CD4^+ and CD8^+ reactivity for all three tested peptides (7/17, 8/18 and 8/18 for oxPTM-INSP-3, Nt-INSP-4 and oxPTM-INSP-6, respectively). The stimulatory index >1 was used for definition of positive T-cell response.
Correlation between T-cell stimulation and antibody response. Subjects evaluated for T-cell stimulation were also tested for antibody reactivity to either oxPTM-INSPs or oxidised intact insulin (oxPTM-INS) to assess correlations between humoral and cellular responses (FIG. 11-e-f). In study cohort 2, antibody reactivity to oxPTM-INSP-6 was the highest as observed in the study cohort 1, with 11/18 (61.1%) binding to at least one oxPTM-INSP-6 derivatives (p<0.001 oxPTM-INSP-6 vs. Nt-INSP-6). Detailed analysis of autoantibody response in this cohort is described in the ESM (ESM results Antibody binding to oxPTM-INSPs in Study cohort 2).
We then analysed the extent of correlation between CD4^+, CD8^+ and IgG antibody responses. […] The CD4^+ T cell response to Nt-INSP-4 frequently overlapped with CD8^+ (13/18 [72.2%]), and to a lesser extent to antibodies (7/18 [38.8%]). […] CD4^+ response to oxPTM-INSP-6 was linked to both CD8^+ and/or antibodies: […] patients had concordant CD4^+ and CD8^+ responses, while 9/18 (50%) patients had concordant CD4^+ and antibody responses. […] CD4^+ T-cell stimulation to Nt-INSP-4, oxPTM-INSP-6 and oxPTM-INSP-3 was associated with antibody reactivity to oxPTM-INS in 8/18 (44.4%), 8/18 (44.4%) and 7/18 (38.9%) type 1 diabetes patients.

serum IgG autoantibodies = assay: ELISA for autoantibody detection: serum antibody binding to native and oxPTM insulin peptides; set-up: species or system human
Procedure, shortened: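 Plates coated overnight at 4 °C with native or HOCl/•OH-oxidised insulin peptides (10 μg/ml, carbonate buffer pH 9.6), blocked with 5% BSA, incubated 2 h with sera at 1:200, then probed with anti-human IgG-HRP and developed with TMB, read at 450 nm. Positivity cut-off: healthy-control mean O.D. plus 3×SEM.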

[2] = Study cohort 1, in house modifications

Substance | concordance between reactivity to oxPTM-INS and CD4+ and CD8+ reactivity (patients/patients) ([1]; Study cohort 2) | patients with CD4+ T-cell stimulation associated with antibody reactivity to oxPTM-INS ([1]; Study cohort 2) [%] | patients with CD4+, CD8+ T-cells to the peptide and autoantibodies to oxPTM-INS simultaneously ([1]; Study cohort 2) [%] | patients with concordant CD4+ and antibody responses to the peptide ([1]; Study cohort 2) [%] | patients with concordant CD4+, CD8+ and IgG antibody response to the peptide ([1]; Study cohort 2) [%] | patients with overlapping (concordant) CD4+ and CD8+ responses to the peptide [1] [%] | % binders, Healthy controls (serum IgG autoantibodies; [2]) [%] | Mean ± SEM (absorbance, OD), Healthy controls (serum IgG autoantibodies; [2]) | % binders, Type 1 diabetes (serum IgG autoantibodies; Study cohort 1, in house modifications, cut-off = mean of healthy controls to Nt-INSP plus 3 SEM) [%] | Mean ± SEM (absorbance, OD), Type 1 diabetes (serum IgG autoantibodies; Study cohort 1 sera, in house modifications) | type 1 diabetes binders (IgG autoantibody reactivity) (serum IgG autoantibodies; Study cohort 2, N = 18) [%] | Antibody reactivity of serum samples (in words) (serum IgG autoantibodies; ELISA)
LVEALYLVCGERGFFYTPKT [insulin B:11-30 native peptide] | 8/18 | 44.4 | 27.8 | 38.8 | 22.2 | 72.2 | 20 | 0.306 ± 0.032 | 50 | 0.469 ± 0.047 | 38.9 | –
oxPTM-INSP-3: oxidised forms of insulin peptide 3 (A:12-21), in house oxidised or in silico derivatives (SLYQLENYCN; not fully specified (N-terminus); also: oxidised forms, in house oxidised or in silico derivatives, modified residues not defined) | 7/17 | 38.9 | 22.2 | – | 5.5 | 50.0 | – | – | – | – | – | High background binding in healthy controls; also recorded: high background binding of healthy controls

From patent US20260072027A1, “Peptides And Method” (Queen Mary University of London, priority 2022, published 2026)
